Data: patent publication US11013235B2 (priority 2015, dated 2021)
Read-outs that look alike come from different tables or passages of the source.

Experiments:
Assay type in all cases: in vivo
[1] = test system: Candidatus 'Liberibacter asiaticus'; settings: spraying every 15 days, 12 months after treatment, Citrus sinensis with HLB
Rhizoctonia solani [2] = assay: Control of Rhizoctonia solani disease in tomato (Rs-SI); settings: 1 μM spraying every 24 hours for one week, water control 96
Meloidogyne incognita = assay: Nematode control, nodules per plant: Meloidogyne incognita; settings: 1 μM foliar application every 5 days, evaluation 35 days after, control 34
How it was run: (§1)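 Compounds in ethanol, diluted in water to 1 μM, sprayed on leaves only every 5 days. Ten plants per treatment; nodules per plant counted at 35 days.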

Nocardia sp = assay: Control of Nocardia sp disease in tobacco (N-Nt); settings: 1 μM spraying every 24 hours for one week, water control 58
How it was run: (§2)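 Fifty pre-inoculated plants per treatment received 1 μM compound sprays daily for a week; water-sprayed plants served as controls. Disease scored as plant mortality (Nocardia), share of leaves with symptoms (A. solani) or lesion diameter (B. cinerea).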

Botrytis cinerea [3] = assay: Control of Botrytis cinerea disease in Arabidopsis (Bc-At); settings: 1 μM spraying every 24 hours for one week, water control 8.7
How it was run: as §2

Rhizoctonia solani [4] = assay: Control of Rhizoctonia solani disease in tobacco (Rs-Nt); settings: 1 μM spraying every 24 hours for one week, water control 87
Botrytis cinerea [5] = assay: Control of Botrytis cinerea disease in tomato (Bc-SI); settings: 1 μM spraying every 24 hours for one week, water control 7.4
How it was run: as §2

Radopholus similis = assay: Nematode control, nodules per plant: Radopholus similis; settings: 1 μM foliar application every 5 days, evaluation 35 days after, control 45
How it was run: as §1

Pratylenchus coffeae = assay: Nematode control, nodules per plant: Pratylenchus coffeae; settings: 1 μM foliar application every 5 days, evaluation 35 days after, control 42
How it was run: as §1

Phytophthora parasitica = assay: Control of Phytophthora parasitica disease in tobacco (Pp-Nt); settings: 1 μM spraying every 24 hours for one week, water control 91
Botrytis cinerea [6] = assay: Control of Botrytis cinerea disease in tobacco (Bc-Nt); settings: 1 μM spraying every 24 hours for one week, water control 6.7
How it was run: as §2

Alternaria solani = assay: Control of Alternaria solani disease in tomato (As-SI); settings: 1 μM spraying every 24 hours for one week, water control 68
How it was run: as §2

Row | Compound | Titers of the bacterium ([1]; 0.001 μM) [copies per reaction] | Titers of the bacterium ([1]; 0.01 μM) [copies per reaction] | Titers of the bacterium ([1]; 1 μM) [copies per reaction] | Titers of the bacterium ([1]; 5 μM) [copies per reaction] | Titers of the bacterium ([1]; 10 μM) [copies per reaction] | Rs-SI: percentage of mortality (Rhizoctonia solani [2]) [%] | Mi: number of nodules per plant (Meloidogyne incognita) | N-Nt: percentage of mortality (Nocardia sp) [%] | Bc-At: mean of the diameter of the lesion (Botrytis cinerea [3]) [mm] | Rs-Nt: percentage of mortality (Rhizoctonia solani [4]) [%] | Bc-SI: mean of the diameter of the lesion (Botrytis cinerea [5]) [mm] | Rs: number of nodules per plant (Radopholus similis) | Pc: number of nodules per plant (Pratylenchus coffeae) | Pp-Nt: percentage of mortality (Phytophthora parasitica) [%] | Bc-Nt: mean of the diameter of the lesion (Botrytis cinerea [6]) [mm] | As-SI: percentage of leaves with the disease symptoms (Alternaria solani) [%]
1 | O=C(c1ccc(OC2CCN(CC(O)CO)CC2)cc1)N1CCC(C2CCCCC2)C1 (stereo not drawn) [IVE] | 985 | 0 | 0 | 98 | 9845 | 2 | 4 | 2 | 0.5 | 4 | 0.8 | 14 | 2 | 1 | 0.9 | 3
2 | CC(O)C(O)CN1CCC(Oc2ccc(C(=O)N3CCC(C4CCCCC4)C3)cc2)CC1 (stereo not drawn) [IVF, 1-(4-{4-[(3-cyclohexylpyrrolidin-1-yl)carbonyl]phenoxy}piperidin-1-yl)butane-2,3-diol] | 657 | 0 | 0 | 67 | 8654 | 2 | 0 | 1 | 1.5 | 0 | 2.5 | 0 | 17 | 0 | 1.5 | 8
3 | O=C(c1ccc(OC2CCN(CC(O)CO)CC2)cc1)N1CCC(C2CCCC2)C1 (stereo not drawn) [IVG, 3-(4-{4-[(3-cyclopentylpyrrolidin-1-yl)carbonyl]phenoxy}piperidin-1-yl)propane-1,2-diol] | 658 | 0 | 0 | 68 | 4562 | 0 | 0 | 0 | 2.4 | 0 | 0.8 | 0 | 0 | 0 | 1.5 | 7
4 | CC(O)C(O)CN1CCC(Oc2ccc(C(=O)N3CCC(C4CCCC4)C3)cc2)CC1 (stereo not drawn) [IVH, 1-(4-{4-[(3-cyclopentylpyrrolidin-1-yl)carbonyl]phenoxy}piperidin-1-yl)butane-2,3-diol] | 756 | 0 | 0 | 76 | 1351 | 1 | 0 | 0 | 0.7 | 0 | 1.2 | 0 | 0 | 0 | 0.9 | 5
5 | O=C(c1ccc(OC2CCN(CC(O)CO)CC2)cc1)N1CCCC1 (stereo not drawn) [IVI, 3-(4-{4-[(pyrrolidin-1-yl)carbonyl]phenoxy}piperidin-1-yl)propane-1,2-diol] | 456 | 4 | 2 | 56 | 2547 | 1 | 0 | 0 | 1.2 | 0 | 0.8 | 3 | 0 | 3 | 0.3 | 7
6 | CC(O)C(O)CN1CCC(Oc2ccc(C(=O)N3CCCC3)cc2)CC1 (stereo not drawn) [IVJ, 1-(4-{4-[(pyrrolidin-1-yl)carbonyl]phenoxy}piperidin-1-yl)butane-2,3-diol] | 435 | 7 | 3 | 45 | 9547 | 3 | 2 | 1 | 1.1 | 2 | 1.6 | 16 | 18 | 1 | 2.0 | 1
7 | O=C(c1ccc(OC2CCN(CC(O)CO)CC2)cc1)N1CCC(n2cccc2)C1 (stereo not drawn) [IVK, 3-[4-(4-{[3-(1H-pyrrol-1-yl)pyrrolidin-1-yl]carbonyl}phenoxy)piperidin-1-yl]propane-1,2-diol] | 578 | 5 | 4 | 78 | 8542 | 3 | 2 | 1 | 0.5 | 2 | 0.8 | 14 | 14 | 1 | 0.9 | 1
8 | CC(O)C(O)CN1CCC(Oc2ccc(C(=O)N3CCC(n4cccc4)C3)cc2)CC1 (stereo not drawn) [IVL, 1-[4-(4-{[3-(1H-pyrrol-1-yl)pyrrolidin-1-yl]carbonyl}phenoxy)piperidin-1-yl]butane-2,3-diol] | 635 | 1 | 7 | 65 | 9853 | 2 | 3 | 1 | 1.5 | 3 | 2.5 | 2 | 12 | 2 | 1.5 | 2
9 | CNC(=O)c1ccc2c(c1)NC(CC(=O)NC(CO)CO)CO2 (stereo not drawn) [VA, 3-{[(1,3-dihydroxypropan-2-yl)carbamoyl]methyl}-N-methyl-3,4-dihydro-2H-1,4-benzoxazine-6-carboxamide] | 524 | 1 | 5 | 54 | 5478 | 2 | 4 | 2 | 2.4 | 4 | 0.8 | 1 | 2 | 1 | 1.5 | 3
